Data: US9868738B2, “Diazine-fused amidines as BACE inhibitors, compositions, and their use” (Merck Sharp & Dohme Corp., priority 2014, dated 2018)

Columns and labels:
[1] = target: soluble human BACE1 catalytic domain (Homo sapiens (Human), UniProt P56817); experiment: BACE-1 Ki Assay (BACE-1 HTRF FRET Assay); format: biochemical; conditions: Ki calculated from IC50 using the Cheng-Prusoff equation; QSY7-APPswe-Eu substrate 200 nM, pH 5.0
Experimental: In another embodiment, the compounds of the invention comprise the example compounds shown in the table below, or a tautomer thereof, or a pharmaceutically acceptable salt of said compound or said tautomer. Examples 2 to 42 were prepared using the method similar to Ex. 1. Example 44 to 51 were synthesized using the method similar to Ex. 43. BACE-1 values reported in this table were measured using BACE-1 Ki Assay (BACE-1 HTRF FRET Assay).
• Reagents: Na^+-Acetate pH 5.0; 1% Brij-35; Glycerol; Dimethyl Sulfoxide (DMSO); Recombinant human soluble BACE1 catalytic domain (>95% pure); APP Swedish mutant peptide substrate (QSY7-APP^swe-Eu): QSY7-EISEVNLDAEFC-Europium-amide.
A homogeneous time-resolved FRET assay can be used to determine IC50 values for inhibitors of the soluble human BACE1 catalytic domain. This assay monitors the increase of 620 nm fluorescence that resulted from BACE1 cleavage of an APPswedish APP^swe mutant peptide FRET substrate (QSY7-EISEVNLDAEFC-Europium-amide). This substrate contains an N-terminal QSY7 moiety that serves as a quencher of the C-terminal Europium fluorophore (620 nm Em). In the absence of enzyme activity, 620 nm fluorescence is low in the assay and increased linearly over 3 hours in the presence of uninhibited BACE1 enzyme. Inhibition of BACE1 cleavage of the QSY7-APP^swe-Eu substrate by inhibitors is manifested as a suppression of 620 nm fluorescence.
Varying concentrations of inhibitors at 3× the final desired concentration in a volume of 10 ul are preincubated with purified human BACE1 catalytic domain (3 nM in 10 μl) for 30 minutes at 30° C. in reaction buffer containing 20 mM Na-Acetate pH 5.0, 10% glycerol, 0.1% Brij-35 and 7.5% DSMO. Reactions are initiated by addition of 10 μl of 600 nM QSY7-APP^swe-Eu substrate (200 nM final) to give a final reaction volume of 30 μl in a 384 well Nunc HTRF plate. The reactions are incubated at 30° C. for 1.5 hours. The 620 nm fluorescence is then read on a Rubystar HTRF plate reader (BMG Labtechnologies) using a 50 millisecond delay followed by a 400 millisecond acquisition time window. Inhibitor IC50 values are derived from non-linear regression analysis of concentration response curves. Ki values are then calculated from IC50 values using the Cheng-Prusoff equation using a previously determined […] of 8 μM for the QSY7-APP^swe-Eu substrate at BACE1.

[2] = target: purified human autoBACE-2 (Homo sapiens (Human), UniProt Q9Y5Z0); experiment: BACE-2 Assay (BACE-HTRF assay); format: biochemical; conditions: Ki calculated from IC50 using the Cheng-Prusoff equation; QSY7-EISEVNLDAEFC-Eu-amide substrate 200 nM, pH 5.0
Experimental: Inhibitor IC50s at purified human autoBACE-2 are determined in a time-resolved endpoint proteolysis assay that measures hydrolysis of the QSY7-EISEVNLDAEFC-Eu-amide FRET peptide substrate (BACE-HTRF assay). BACE-mediated hydrolysis of this peptide results in an increase in relative fluorescence (RFU) at 620 nm after excitation with 320 nm light. Inhibitor compounds, prepared at 3× the desired final concentration in 1×BACE assay buffer (20 mM sodium acetate pH 5.0, 10% glycerol, 0.1% Brij-35) supplemented with 7.5% DMSO are pre-incubated with an equal volume of autoBACE-2 enzyme diluted in 1×BACE assay buffer (final enzyme concentration 1 nM) in black 384-well NUNC plates for 30 minutes at 30° C. […] DMSO is present at […] final concentration in the assay. Following laser excitation of sample wells at 320 nm, the fluorescence signal at 620 nm is collected for 400 ms following a 50 μs delay on a RUBYstar HTRF plate reader (BMG Labtechnologies). Raw RFU data is normalized to maximum (1.0 nM BACE/DMSO) and minimum (no enzyme/DMSO) RFU values. IC50s are determined by nonlinear regression analysis (sigmoidal dose response, variable slope) of percent inhibition data with minimum and maximum values set to 0 and 100 percent respectively. Similar IC50s are obtained when using raw RFU data. The Ki values are calculated from the IC50 using the Cheng-Prusoff equation.

Sequence of soluble human BACE1 catalytic domain (P56817 75-416): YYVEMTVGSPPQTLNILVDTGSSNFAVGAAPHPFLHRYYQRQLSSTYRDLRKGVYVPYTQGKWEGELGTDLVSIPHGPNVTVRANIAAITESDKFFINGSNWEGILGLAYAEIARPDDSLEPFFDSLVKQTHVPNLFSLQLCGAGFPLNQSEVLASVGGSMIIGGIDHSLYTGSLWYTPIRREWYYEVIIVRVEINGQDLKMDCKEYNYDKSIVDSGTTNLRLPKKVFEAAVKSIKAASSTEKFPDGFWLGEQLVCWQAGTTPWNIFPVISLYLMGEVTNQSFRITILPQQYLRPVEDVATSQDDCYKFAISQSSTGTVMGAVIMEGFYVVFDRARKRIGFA
Sequence of purified human autoBACE-2 (Q9Y5Z0 63-473 limits assumed): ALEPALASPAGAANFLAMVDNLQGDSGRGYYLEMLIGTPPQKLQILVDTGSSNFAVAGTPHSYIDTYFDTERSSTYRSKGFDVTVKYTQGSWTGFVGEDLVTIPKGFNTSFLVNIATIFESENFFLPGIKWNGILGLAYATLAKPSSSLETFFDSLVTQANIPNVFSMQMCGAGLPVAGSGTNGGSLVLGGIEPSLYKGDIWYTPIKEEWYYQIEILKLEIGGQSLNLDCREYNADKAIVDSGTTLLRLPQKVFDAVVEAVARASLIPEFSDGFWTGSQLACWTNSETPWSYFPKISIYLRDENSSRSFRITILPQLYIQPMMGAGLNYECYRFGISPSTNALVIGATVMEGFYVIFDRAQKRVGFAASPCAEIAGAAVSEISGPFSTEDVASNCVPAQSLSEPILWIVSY

| Compound | Ki [1] [nM] | Ki [2] [nM] |
| --- | --- | --- |
| C[C@@]1(c2cc(-c3cccc(C(F)(F)F)c3)ccc2F)Cc2ncncc2C(=N)N1 [Example 6, (7S)-7-[4-fluoro-3′-(trifluoromethyl)biphenyl-3-yl]-7-methyl-7,8-dihydropyrido[4,3-d]pyrimidin-5(6H)-imine] | 3040 | 549 |
| C[C@@]1(c2sc(-c3cccc(C#N)c3)cc2Cl)Cc2nc(C3CC3)ncc2C(=N)N1 [Example 36, 3-{4-chloro-5-[(7S)-2-cyclopropyl-5-imino-7-methyl-5,6,7,8-tetrahydropyrido[4,3-d]pyrimidin-7-yl]thiophen-2-yl}benzonitrile] | 48.9 | 21.5 |
| C[C@@]1(c2cc(NC(=O)c3ccc(C(F)(F)F)cn3)ccc2F)Cc2nc(C3CC3)ncc2C(=N)N1 [Example 49, N-{3-[(7S)-2-cyclopropyl-5-imino-7-methyl-5,6,7,8-tetrahydropyrido[4,3-d]pyrimidin-7-yl]-4-fluorophenyl}-5-(trifluoromethyl)pyridine-2-carboxamide] | 20.5 | 34.2 |
| C[C@@]1(c2cc(-c3cncc(C#N)c3)cs2)Cc2nc(C(F)(F)F)ncc2C(=N)N1 [Example 41, 5-{5-[(7S)-5-imino-7-methyl-2-(trifluoromethyl)-5,6,7,8-tetrahydropyrido[4,3-d]pyrimidin-7-yl]thiophen-3-yl}pyridine-3-carbonitrile] | 208 | 97.7 |
| Cc1ncc2c(n1)C[C@@](C)(c1cc(NC(=O)c3ccc(C(F)(F)F)cn3)ccc1F)NC2=N [Example 46, N-{4-fluoro-3-[(7S)-5-imino-2,7-dimethyl-5,6,7,8-tetrahydropyrido[4,3-d]pyrimidin-7-yl]phenyl}-5-(trifluoromethyl)pyridine-2-carboxamide] | 18.1 | 48.3 |
| C[C@@]1(c2sc(-c3cccc(C#N)c3)cc2Cl)Cc2ncncc2C(=N)N1 [Example 13, 3-{4-chloro-5-[(7S)-5-imino-7-methyl-5,6,7,8-tetrahydropyrido[4,3-d]pyrimidin-7-yl]thiophen-2-yl}benzonitrile] | 35.2 | 15.1 |
| C[C@@]1(c2sc(-c3cc(F)cc(-c4nnco4)c3)cc2Cl)Cc2ncncc2C(=N)N1 [Example 17, (7S)-7-{3-chloro-5-[3-fluoro-5-(1,3,4-oxadiazol-2-yl)phenyl]thiophen-2-yl}-7-methyl-7,8-dihydropyrido[4,3-d]pyrimidin-5(6H)-imine] | 16.5 | 21.6 |
| C[C@@]1(c2sc(-c3cncc(C#N)c3)cc2Cl)Cc2nc(C3CC3)ncc2C(=N)N1 [Example 37, 5-{4-chloro-5-[(7S)-2-cyclopropyl-5-imino-7-methyl-5,6,7,8-tetrahydropyrido[4,3-d]pyrimidin-7-yl]thiophen-2-yl}pyridine-3-carbonitrile] | 94.7 | 44.2 |
| Cc1ncc2c(n1)C[C@@](C)(c1sc(-c3ccc(F)c(C#N)c3)cc1Cl)NC2=N [Example 27, 5-{4-chloro-5-[(7S)-5-imino-2,7-dimethyl-5,6,7,8-tetrahydropyrido[4,3-d]pyrimidin-7-yl]thiophen-2-yl}-2-fluorobenzonitrile] | 52.1 | 28.3 |
| COc1cccc2cc(-c3cc(Cl)c([C@]4(C)Cc5nc(C6CC6)ncc5C(=N)N4)s3)[nH]c12 [Example 38, (7S)-7-[3-chloro-5-(7-methoxy-1H-indo1-2-yl)thiophen-2-yl]-2-cyclopropyl-7-methyl-7,8-dihydropyrido[4,3-d]pyrimidin-5(6H)-imine] | 22.3 | 2 |
